# In patent US5356928A, “Cytotoxic agents” (Hauser Chemical Research, Inc., priority 1993, dated 1994):
# “Also recorded” adds a separate entry of the source. Read-outs that look alike come from different tables or passages of the source.
# Assays:
# [1] = test system: Tubulin free of microtubule-associated proteins; assay: Tubulin Assembly (microtubule assembly; protein concentration of the supernatant); format: biochemical, bovine; conditions: for Tubulin Assembly ED50: concentration which reduces the supernatant protein concentration by 50%, tubulin 1 mg/ml, 37° C., 15 minutes, PEM buffer pH 6.9; for Tubulin Assembly ED50 /ED50 Taxol: relative to control sample of taxol, less than 1 = greater activity than taxol
# Source text: This example illustrates the results of biological tests on the compounds of this invention and certain "controls" with respect to tubulin binding and the effect of these compounds on B16 melanoma. The following procedures were employed:
# Tubulin Preparation and Assembly. The tubulin testing was done exactly as described by Himes (Georg, G. I., et al., "Synthesis of Biologically Active Taxol Analogs with Modified Phenylisoserine Side Chains", J. Med. Chem. Vol. 35: 4230, (1992)), incorporated herein by reference. Tubulin free of microtubule-associated proteins was purified from bovine brain as described in Algaier, J.; Himes, R. H., "The Effect of Dimethyl Sulfoxide on the Kinetics of Tubulin Assembly" Biochim. Biophys. Acta, Vol 954, pp 235-243, 1988. The assembly reaction was done at 37° C. in PEM buffer ([…], pH 6.9, 1 mM EGTA, and 1 mM MgSO4) at a protein concentration of 1 mg/ml (10 μM) in the presence of taxol or taxol analogs and 0.5 mM GTP. The reaction was monitored by the increase in the apparent absorbance at 350 nm.
# Taxol has been included in Table 1 for reference. […] A number less than 1 in these columns indicates greater activity than taxol. A number greater than 1 in these columns indicates lower activity than taxol. These tests have been used and relied upon by researchers in this field to determine the potential efficacy of taxol and/or a taxol analog for the treatment of cancer.
# ^b Tubulin at 1 mg/ml was incubated with various concentrations of th
# compounds at 37° C. for 15 minutes in 0.5 ml of PEM buffer (0.1M
# Pipes, 1 mM EGTA, 1 mM MgSO4, pH 6.9). Samples were centrifuged and
# the protein concentration on the supernatant was determined.
# ^d The concentration in μg/ml which reduces the supernatant protei
# [2] = test system: B16 melanoma cells; assay: B16 Melanoma Cell Proliferation; format: cell-based; conditions: for IC50: Mus musculus, read-out: B16 Proliferation ED50; for B16 Proliferation ED50 /ED50 Taxol: relative to control sample of taxol, less than 1 = greater activity than taxol
# Protocol: The following procedures were employed:
# B16 Melanoma Cell Proliferation. Cells were seeded in 24-well plates at 7.5×10^4 cells/well and grown in Delbecco's modified minimal essential medium (MEM) containing 10% bovine calf serum at 37° C. for 24 hours in a 97% humidified atmosphere of 5.5% CO2, the medium was then replaced with fresh medium containing taxol or its derivatives and dissolved in DMSO in concentrations ranging from […] to 1×10^-7 M for taxol and other derivatives. The final concentration of DMSO in the cell medium was 0.5% or less. […] After 40 hours, the cells were released by trypsinization and counted in a Coulter counter.
# A number less than 1 in these columns indicates greater activity than taxol. A number greater than 1 in these columns indicates lower activity than taxol.
# [3] = test system: tubulin; conditions: Taxotere compared with taxol; taxol per Schiff et al.; Kingston review; cited from earlier work
# [4] = cited from earlier work
# [5] = test system: macrophage-like J774.2 cells; conditions: mouse macrophage-like J774.2 cells; Taxotere vs taxol; cited from earlier work
# [6] = test system: taxol-resistant tumor cells; conditions: Taxotere vs taxol; cited from earlier work
# [7] = test system: P388 murine leukemia cells; conditions: Taxotere vs taxol; cited from earlier work
# [8] = test system: cell; conditions: literature on taxol and taxol analogs (Kingston); cited from earlier work
# [9] = B16, concentration which reduces the number of cells by 50 [%] compared to a control, about 40 h at 37° C., highest concentration used 1000 ng/ml
SMILES,Tubulin Assembly ED50 [1] [µg/mL],Tubulin Assembly ED50 /ED50 Taxol [1],"IC50 ([2]; B16, 40 h) [µg/mL]",B16 Proliferation ED50 /ED50 Taxol [2],also measured
"CC(=O)O[C@@]12CO[C@@H]1C[C@H](O[C@@H]1OC[C@@H](O)[C@H](O)[C@H]1O)[C@@]1(C)C(=O)[C@H](O)C3=C(C)[C@@H](OC(=O)[C@H](O)[C@@H](NC(=O)c4ccccc4)c4ccccc4)C[C@@](O)([C@@H](OC(=O)c4ccccc4)[C@H]21)C3(C)C [Compound 5, 10-deacetyl-7-xylosyl taxol]",0.72,0.70,> 1,> 44,–
CC(=O)O[C@@]12CO[C@@H]1C[C@H](O[C@@H](CO)OCCO)[C@@]1(C)C(=O)[C@H](O)C3=C(C)[C@@H](OC(=O)[C@H](O)[C@@H](NC(=O)c4ccccc4)c4ccccc4)C[C@@](O)([C@@H](OC(=O)c4ccccc4)[C@H]21)C3(C)C [Compound 15],1.42,1.66,–,14.6,"IC50 [2, 9]: 0.328 µg/mL"
C/C=C(\C)C(=O)N[C@@H](c1ccccc1)[C@@H](O)C(=O)O[C@H]1C[C@@]2(O)[C@@H](OC(=O)c3ccccc3)[C@@H]3[C@]4(OC(C)=O)CO[C@@H]4C[C@H](O[C@@H]4OCC(O)OC4O)[C@@]3(C)C(=O)[C@H](O)C(=C1C)C2(C)C (stereo partly shown) [Compound 10],0.82,0.96,0.317,14.1,–
CCCCCC(=O)N[C@@H](c1ccccc1)[C@@H](O)C(=O)O[C@H]1C[C@@]2(O)[C@@H](OC(=O)c3ccccc3)[C@@H]3[C@]4(OC(C)=O)CO[C@@H]4C[C@H](O[C@@H]4OCC(O)OC4O)[C@@]3(C)C(=O)[C@H](O)C(=C1C)C2(C)C (stereo partly shown) [Compound 14],1.45,1.70,–,8.28,"IC50 [2, 9]: 0.186 µg/mL"
"CC(=O)O[C@H]1C(=O)[C@]2(C)[C@@H](O[C@@H]3OC[C@@H](O)[C@H](O)[C@H]3O)C[C@H]3OC[C@@]3(OC(C)=O)[C@H]2[C@H](OC(=O)c2ccccc2)[C@]2(O)C[C@H](OC(=O)[C@H](O)[C@@H](NC(=O)c3ccccc3)c3ccccc3)C(C)=C1C2(C)C [Compound 3, 7-xylosyl taxol]",0.82,0.80,0.925,40.8,–
CC(=O)O[C@@]12CO[C@@H]1C[C@H](O)[C@@]1(C)C(=O)[C@H](O)C3=C(C)[C@@H](OC(=O)[C@H](O)[C@@H](NC(=O)OC(C)(C)C)c4ccccc4)C[C@@](O)([C@@H](OC(=O)c4ccccc4)[C@H]21)C3(C)C [Compound 2],–,–,–,–,"activity as a promoter of tubulin polymerization / tubulin binding, in words [3]: slightly more active as a promoter of tubulin polymerization; also recorded: enhanced in vitro tubulin binding activity; water solubility, in words [4]: improved water solubility; potency as an inhibitor of replication, times more potent than taxol [5]: 1.5 times; potency in taxol-resistant tumor cells, vs taxol [6]: at least five-fold more potent; potency as an inhibitor of replication, times more potent than taxol [7]: 1.5 times"
"CCCCCC(=O)N[C@@H](c1ccccc1)[C@@H](O)C(=O)O[C@H]1C[C@@]2(O)[C@@H](OC(=O)c3ccccc3)[C@@H]3[C@]4(OC(C)=O)CO[C@@H]4C[C@H](O[C@@H]4OC[C@@H](O)[C@H](O)[C@H]4O)[C@@]3(C)C(=O)[C@H](O)C(=C1C)C2(C)C [Compound 13, 10-deacetyl-7-xylosyl taxol C]",0.58,0.60,> 1,> 44,–
CC(=O)O[C@H]1C(=O)[C@]2(C)[C@@H](O[C@@H]3OCC(O)OC3O)C[C@H]3OC[C@@]3(OC(C)=O)[C@H]2[C@H](OC(=O)c2ccccc2)[C@]2(O)C[C@H](OC(=O)[C@H](O)[C@@H](NC(=O)c3ccccc3)c3ccccc3)C(C)=C1C2(C)C (stereo partly shown) [Compound 4],0.48,0.57,–,2.2,"tubulin binding / in vitro tubulin assembly, in words ([1]; compared to taxol or to precursors): comparable to results for taxol; cytotoxicity, in words ([2]; B16 melanoma, compared to taxol or to precursors): comparable to results for taxol; IC50 [2, 9]: 0.05 µg/mL"
"CC(=O)O[C@H]1C(=O)[C@@]2(C)[C@H]([C@H](OC(=O)c3ccccc3)[C@]3(O)C[C@H](OC(=O)[C@H](O)[C@@H](NC(=O)c4ccccc4)c4ccccc4)C(C)=C1C3(C)C)[C@]1(OC(C)=O)CO[C@@H]1C[C@@H]2O [Compound 1, taxol]",1.08,1.26,–,0.95,"activity as a promoter of tubulin polymerization / tubulin binding, in words [3]: significant tubulin binding activity; cytotoxicity / activity, in words [8]: significant cytotoxicity; ED50 for taxol in the assembly assay ([1]; control sample, denominator of ED50/ED50 Taxol, 15 min): 0.854 µg/mL"
CC(=O)O[C@@]12CO[C@@H]1C[C@H](O[C@@H]1OCC(O)OC1O)[C@@]1(C)C(=O)[C@H](O)C3=C(C)[C@@H](OC(=O)[C@H](O)[C@@H](NC(=O)c4ccccc4)c4ccccc4)C[C@@](O)([C@@H](OC(=O)c4ccccc4)[C@H]21)C3(C)C (stereo partly shown) [Compound 6],0.68,0.80,0.432,15.1,–
"C/C=C(\C)C(=O)N[C@@H](c1ccccc1)[C@@H](O)C(=O)O[C@H]1C[C@@]2(O)[C@@H](OC(=O)c3ccccc3)[C@@H]3[C@]4(OC(C)=O)CO[C@@H]4C[C@H](O[C@@H]4OC[C@@H](O)[C@H](O)[C@H]4O)[C@@]3(C)C(=O)[C@H](O)C(=C1C)C2(C)C [Compound 9, 10-deacetyl-7-xylosyl cephalomannine]",1.10,1.10,0.755,33.3,–
